Values after ≈ are worked out from the molar mass of the structure shown. Like-named read-outs stand apart in the source and are kept apart here.
Key:
[1] = Solubility determination of MK2 inhibitors (kinetic aqueous solubility, UPLC); format: physicochemical; conditions: aqueous buffer (system solution from pION inc.), 22 °C, pH 7.4, aqueous buffer, kinetic from dmso stock
Method in brief: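 Kinetic shake-flask solubility (mg/L) at pH 7.4, room temperature (21-23° C.), 1% final DMSO from 10 mM DMSO stock, duplicates. Shaken 24 h, filtered (0.45 um), 1-propanol added to filtrate; dissolved compound quantified by UPLC-UV against external DMSO calibration line of the same compound.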

MK2 enzyme = molecular target: T1, MK2 enzyme (Homo sapiens, UniProt P49137); test: MK2 enzyme activity, IMAP fluorescence polarization assay; format: biochemical; conditions: MK2 IMAP assay
T1 construct: MK2 enzyme (active enzyme (peptide 46-end (Millipore))); purchased Millipore
Method in brief: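 Enzyme kept in KR buffer (10 mM Tris-HCl, 10 mM MgCl2, 0.01% Tween-20, 2 mM DTT, pH 7.2) and acting on a fluorescein-labeled peptide substrate; final compound range 10 μM to 0.316 nM. After 60 min at room temperature, FP at 535 nm was read. Signal as percent of the with/without-ATP control difference, and EC50 by curve fit.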

[2] = pH 7.4, room temperature, about 1% DMSO, 24 h shaking, read-out: solubility
[3] = 1 μM ATP, 30 min pre-incubation, 2 h room temperature, read-out: pEC50 value (converted)
[4] = Table 2, compound of Formula (I) with amine-containing spiro ring, pH 7.4, read-out: Solubility pH 7.4 (mg/L), Formula (I)
[5] = Table 2, compound of Formula (I) with amine-containing spiro ring, read-out: pEC50, Formula (I) (converted)

T1 sequence (P49137 46-400 limits assumed): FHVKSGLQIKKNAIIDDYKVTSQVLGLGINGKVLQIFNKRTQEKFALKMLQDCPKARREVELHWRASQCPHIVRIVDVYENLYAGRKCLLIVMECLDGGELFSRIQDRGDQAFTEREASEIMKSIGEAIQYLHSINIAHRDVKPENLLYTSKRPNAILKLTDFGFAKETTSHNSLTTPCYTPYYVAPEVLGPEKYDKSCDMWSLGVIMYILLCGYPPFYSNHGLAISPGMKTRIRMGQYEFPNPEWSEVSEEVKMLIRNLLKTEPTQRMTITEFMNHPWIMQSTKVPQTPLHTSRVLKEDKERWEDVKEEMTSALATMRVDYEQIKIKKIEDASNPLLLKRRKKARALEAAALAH

| SMILES | solubility at 24 h [1, 2] [mg/L] | EC50 (MK2 enzyme; [3]) [nM] | other results |
| --- | --- | --- | --- |
| O=C1NCC2(CCNCC2)c2[nH]c(-c3nc(-c4cnc5ccccc5c4)ncc3F)cc21 [4—3, 2′-(5-fluoro-2-(quinolin-3-yl)pyrimidin-4-yl)-5′,6′-dihydrospiro[piperidine-4,7′-pyrrolo[3,2-c]pyridin]-4′(1′H)-one] | ≥ 50 | ≤ 3.16 | – |
| CC(=O)NCCN1CCC2(CC1)CNC(=O)c1cc(-c3ccnc(-c4cc5ccccc5o4)n3)[nH]c12 [Example 3—1, N-(2-(2′-(2-(benzofuran-2-yl)pyrimidin-4-yl)-4′-oxo-1′,4′,5′,6′-tetrahydrospiro[piperidine-4,7′-pyrrolo[3,2-c]pyridine]-1-yl)ethyl)acetamide] | ≥ 50 | 3.16 to 31.6 | – |
| O=C1NCC2(CCOCC2)c2[nH]c(-c3ccnc(-c4ccc5c(c4)OCO5)n3)cc21 [17_1 Formula (XVI)] | – | – | solubility at 24 h ([1]; Table 2, comparison compound of Formula (XVI), spiro ring without amine, pH 7.4, read-out: Solubility pH 7.4 (mg/L), Formula (XVI)): 2 mg/L; EC50 (MK2 enzyme; Table 2, comparison compound of Formula (XVI), spiro ring without amine, read-out: pEC50, Formula (XVI) (converted)): 794 nM |
| O=C1NCC2(CCNCC2)c2[nH]c(-c3nc(-c4cc5ccccc5o4)ncc3F)cc21 [Example 4—1, 2′-(2-(benzofuran-2-yl)-5-fluoropyrimidin-4-yl)-5′,6′-dihydrospiro[piperidine-4,7′-pyrrolo[3,2-c]pyridin]-4′(1′H)-one] | 20 to 50 (≈ 47.9 to 120 µM) | 3.16 to 31.6 | – |
| O=C(NC1CCCCC1)c1ccc(-c2nccc(-c3cc4c([nH]3)C3(CCNCC3)CNC4=O)n2)cc1Cl [1—31, 2-chloro-N-cyclohexyl-4-(4-(4′-oxo-1′,4′,5′,6′-tetrahydrospiro[piperidine-4,7′-pyrrolo[3,2-c]pyridine]-2′-yl)pyrimidin-2-yl)benzamide] | ≥ 50 | 3.16 to 31.6 | – |
| O=C1NCC2(CCNCC2)c2[nH]c(-c3ccnc(-c4ccc5ccccc5c4)n3)cc21 [1—24, 2′-(2-(naphthalen-2-yl)pyrimidin-4-yl)-5′,6′-dihydrospiro[piperidine-4,7′-pyrrolo[3,2-c]pyridin]-4′(1′H)-one] | ≥ 50 | 3.16 to 31.6 | – |
| O=C1NCC2(CCNCC2)c2[nH]c(-c3ccnc(-c4ccc(Oc5ccccc5)cc4)n3)cc21 [1—15, 2′-(2-(4-phenoxyphenyl)pyrimidin-4-yl)-5′,6′-dihydrospiro[piperidine-4,7′-pyrrolo[3,2-c]pyridin]-4′(1′H)-one] | ≥ 50 | 3.16 to 31.6 | – |
| O=C1NCC2(CCCNC2)c2[nH]c(-c3ccnc(-c4ccc5c(c4)OCO5)n3)cc21 (stereo not shown) [5—2, 2′-(2-(benzo[d][1,3]dioxol-5-yl)pyrimidin-4-yl)-5′,6′-dihydrospiro[piperidine-3,7′-pyrrolo[3,2-c]pyridin]-4′(1′H)-one] | ≥ 50 | 3.16 to 31.6 | – |
| CC(C)c1cccc(-c2nccc(-c3cc4c([nH]3)C3(CCNCC3)CNC4=O)n2)c1 [1—14, 2′-(2-(3-isopropylphenyl)pyrimidin-4-yl)-5′,6′-dihydrospiro[piperidine-4,7′-pyrrolo[3,2-c]pyridin]-4′(1′H)-one] | 20 to 50 (≈ 49.8 to 125 µM) | 31.6 to 316 | – |
| CNC(=O)c1ccc(-c2ncc(F)c(-c3cc4c([nH]3)C3(CCNCC3)CNC4=O)n2)cc1 [4—4, 4-(5-fluoro-4-(4′-oxo-1′,4′,5′,6′-tetrahydrospiro[piperidine-4,7′-pyrrolo[3,2-c]pyridine]-2′-yl)pyrimidin-2-yl)-N-methylbenzamide] | 20 to 50 (≈ 46 to 115 µM) | 3.16 to 31.6 | – |
| CC(C)COc1ccc(-c2nccc(-c3cc4c([nH]3)C3(CCNCC3)CNC4=O)n2)cc1 [1—27, 2′-(2-(4-isobutoxyphenyl)pyrimidin-4-yl)-5′,6′-dihydrospiro[piperidine-4,7′-pyrrolo[3,2-c]pyridin]-4′(1′H)-one] | ≥ 50 | 3.16 to 31.6 | – |
| CC(C)Cc1ccc(-c2nccc(-c3cc4c([nH]3)C3(CCNCC3)CNC4=O)n2)cc1 [1—23, 2′-(2-(4-isobutylphenyl)pyrimidin-4-yl)-5′,6′-dihydrospiro[piperidine-4,7′-pyrrolo[3,2-c]pyridin]-4′(1′H)-one] | ≥ 50 | 3.16 to 31.6 | – |
| O=C1NCC2(CCNC2)c2[nH]c(-c3ccnc(-c4cnc5ccccc5c4)n3)cc21 (stereo not shown) [Example 6—1, 2′-(2-(quinolin-3-yl)pyrimidin-4-yl)-5′,6′-dihydrospiro[pyrrolidine-3,7′-pyrrolo[3,2-c]pyridin]-4′(1′H)-one] | 20 to 50 (≈ 50.4 to 126 µM) | ≤ 3.16 | – |
| O=C1NCC2(CCNC2)c2[nH]c(-c3ccnc(-c4cccc(F)c4)n3)cc21 (stereo not shown) [17_4 Formula (I)] | – | – | solubility at 24 h [1, 4]: 48 mg/L; EC50 (MK2 enzyme; [5]): 12.6 nM |
| CC(=O)c1ccc(-c2nccc(-c3cc4c([nH]3)C3(CCNCC3)CNC4=O)n2)cc1 [16_8 Formula (I)] | – | – | solubility at 24 h ([1]; Table 1, compound of Formula (I) with spiro ring, pH 7.4, read-out: Solubility pH 7.4 (mg/L), Formula (I)): 35 mg/L; EC50 (MK2 enzyme; Table 1, compound of Formula (I) with spiro ring, read-out: pEC50, Formula (I) (converted)): 6.31 nM |
| O=C1NCC2(CCNCC2)c2[nH]c(-c3ccnc(-c4cnc5ccccc5c4)c3)cc21 [8—2, 2′-(2-(quinolin-3-yl)pyridin-4-yl)-5′,6′-dihydrospiro[piperidine-4,7′-pyrrolo[3,2-c]pyridin]-4′(1′H)-one] | 20 to 50 (≈ 48.8 to 122 µM) | ≤ 3.16 | – |
| CC(C)(C)c1ccc(-c2nccc(-c3cc4c([nH]3)C3(CCNCC3)CNC4=O)n2)cc1 [1—22, 2′-(2-(4-tert-butylphenyl)pyrimidin-4-yl)-5′,6′-dihydrospiro[piperidine-4,7′-pyrrolo[3,2-c]pyridin]-4′(1′H)-one] | ≥ 50 | 3.16 to 31.6 | – |
| O=C1NCC2(CCNC2)c2[nH]c(-c3ccnc(-c4cnc5ccccc5c4)n3)cc21 (stereo not shown) [17_3 Formula (I)] | – | – | solubility at 24 h [1, 4]: 37 mg/L; EC50 (MK2 enzyme; [5]): 2.51 nM |
| O=C(NC1CCCCC1)c1ccc(-c2nccc(-c3cc4c([nH]3)C3(CCNCC3)CNC4=O)n2)cc1 [1—36, N-cyclohexyl-4-(4-(4′-oxo-1′,4′,5′,6′-tetrahydrospiro[piperidine-4,7′-pyrrolo[3,2-c]pyridine]-2′-yl)pyrimidin-2-yl)benzamide] | ≥ 50 | 3.16 to 31.6 | – |
| O=C1NCC2(CCCNC2)c2[nH]c(-c3ccnc(-c4cc5ccccc5o4)n3)cc21 (stereo not shown) [Example 5—1, 2′-(2-(benzofuran-2-yl)pyrimidin-4-yl)-5′,6′-dihydrospiro[piperidine-3,7′-pyrrolo[3,2-c]pyridin]-4′(1′H)-one] | ≥ 50 | 3.16 to 31.6 | – |
